The values below come from the SangsterLogP compilation.

The data set is described as follows: method code SF-AS, from DOI: 10.1016/0223-5234(89)90112-8. As to conditions: for logD: pH 7.4.

SMILES strings stand for the structures.

Broadly, the logD is the decadic logarithm of the distribution of all forms, ionised or not, between an organic phase and buffer at a given pH. Low readings indicate a more hydrophilic compound, high ones a more lipophilic compound. Compound `C=CCOC1(c2ccccc2)CN(C)CCO1` (stereo not drawn) displayed a logD of 1.92.
`CC1N(C)CCOC1(O)c1ccccc1` (stereo not drawn) showed a logD of 1.31.
The same measure, in the same setting: with `CN1CCOC(O)C1c1ccccc1` (stereo not drawn) the figure was 0.97.
`CC(C)COC1(c2ccccc2)CN(C)CCO1` (stereo not drawn) had a logD of 1.98.
Same read-out and setting: with `CCCOC1(c2ccccc2)CN(C)CC(C)O1` (stereo not drawn) the figure was 1.96.
The compound `CCCCOC1(c2ccccc2)CN(C)CCO1` (stereo not drawn) yielded a logD of 2.05.
`CCCOC1(c2ccccc2)CN(C)CCO1` (stereo not drawn) showed a pH-dependent lipophilicity (logD) of 1.95.
`CC1CN(C)CC(O)(c2ccccc2)O1` (stereo not drawn) displayed a logD of 1.48.
As a reminder, the logP is a log measure of how a compound divides between an organic and an aqueous phase. Read a low logP as a more hydrophilic compound. On to `CCCOC1(c2ccc(Br)cc2)CN(C)CCO1` (stereo not drawn), for which the logP turned out to be 2.19.
`CN1CCOC(O)(c2ccc(Br)cc2)C1` (stereo not drawn): the logP amounted to 1.57.
With `CN1CCOC(O)(c2ccccc2)C1` (stereo not drawn), the logD was 1.3.
Compound `CN1CCOC(O)(c2cccc(C(F)(F)F)c2)C1` (stereo not drawn) showed a logP of 1.39.
Still for that read-out and setting: with `CN1CCOC(OCCc2ccccc2)(c2ccccc2)C1` (stereo not drawn) the figure was 2.11.
Regarding `CCOC1(c2ccccc2)OCCN(C)C1C` (stereo not drawn), the logD stood at 1.74.
Same read-out and setting: with `C#CCOC1(c2ccccc2)CN(C)CCO1` (stereo not drawn) the figure was 1.76; with `CN1CCOC(OCc2ccccc2)(c2ccccc2)C1` (stereo not drawn), 2.05.
Consider `CC1C(c2ccccc2)OC(O)(c2ccccc2)CN1C` (stereo not drawn), for which the logP is 1.87.
Take `CCCCCCCCOC1(c2ccccc2)CN(C)CCO1` (stereo not drawn): the logP worked out at 2.32.
